{
  "source": "patent US12023345B2",
  "about": "“Compositions and methods for treating lysosomal disorders” (RUSH UNIVERSITY MEDICAL CENTER, priority 2014, dated 2024)",
  "key": {"[1]": {"system": "Tfeb", "experiment": "Tfeb mRNA by quantitative real-time PCR in mouse primary astrocytes", "assay_type": "cell-based", "conditions": "serum free media, 12 hrs, single doses or combination", "description": "Isolation of Primary Mouse Astroglia: Astroglia were isolated from mixed glial cultures as described (24, 25) according to the procedure of Giulian and Baker (26). Briefly, on day 9, the mixed glial cultures were washed three times with Dulbecco's modified Eagle's medium/F-12 and subjected to shaking at 240 rpm for 2 h at 37° C. on a rotary shaker to remove microglia. After 2 days, the shaking was repeated for 24 h for the removal of oligodendroglia and to ensure the complete removal of all nonastroglial cells. The attached cells were seeded onto new plates for further studies. Quantitative Real-Time PCR: The mRNA quantification was performed using the ABIPrism7700 sequence detection system (Applied Biosystems, Foster City, CA) using SYBR Select master mix (Applied Biosystems). The mRNA expression of the targeted genes was normalized to the level of Gapdh mRNA and data was processed by the ABI Sequence Detection System 1.6 software."}, "[2]": {"system": "Tfeb", "experiment": "TFEB mRNA by semi-quantitative RT-PCR in mouse primary astrocytes", "assay_type": "cell-based", "conditions": "different concentrations, 5 hr, serum-free", "description": "Semi-Quantitative Reverse Transcriptase-Coupled Polymerase Chain Reaction (RT-PCR): Total RNA was isolated from mouse primary astrocytes and human primary astrocytes using RNA-Easy Qiagen (Valencia, CA) kit following manufactures protocol. Semi-quantitative RTPCR was carried out as described earlier (28) using oligo (dT) 12-18 as primer and moloney murine leukemia virus reverse transcriptase (MMLV-RT, Invitrogen) in a 20 μl reaction mixture. The resulting cDNA was appropriately amplified using Promega Master Mix (Madison, WI) and the following primers (Invitrogen) for murine genes: […]\nAmplified products were electrophoresed on 2% agarose (Invitrogen) gels and visualized by ethidium bromide (Invitrogen) staining. Glyceraldehyde-3-phosphate dehydrogenase (Gapdh) mRNA was used as a loading control to ascertain that an equivalent amount of cDNA was synthesized from each sample.\nMouse primary astrocytes were incubated with different concentrations (see FIG. 9) of simvastatin and pravastatin (A), (B), cinnamic acid (C), and sodium phenylbutyrate and sodium benzoate (D) for 5 hr. under serum-free condition followed by monitoring the mRNA expression of TFEB by semi-quantitative RT-PCR. Sodium formate (D) was used as a negative control for sodium phenylbutyrate and sodium benzoate."}, "[3]": {"system": "TFEB", "conditions": "cited from earlier work"}, "[4]": {"system": "TFEB", "conditions": "cells from patients suffering from LINCL; cited from earlier work"}, "[5]": {"conditions": "500 mg SAM given together with aspirin 1300 mg; cited from earlier work"}},
  "data": [
    {"compound": "Cc1ccc(C)c(OCCCC(C)(C)C(=O)O)c1", "note": "[gemfibrozil]", "values": [
      {"measurement": "Tfeb mRNA expression (qRT-PCR)", "setting": "[1]", "result": "increased expression of Tfeb"}
    ]},
    {"compound": "O=C([O-])c1ccccc1.[Na+]", "note": "[sodium benzoate]", "values": [
      {"measurement": "TFEB mRNA expression (semi-quantitative RT-PCR)", "setting": "[2]", "result": "upregulation of TFEB mRNA expression"}
    ]},
    {"compound": "O=c1c(-c2ccc(O)cc2)coc2cc(O)cc(O)c12", "note": "[Genistein, 5,7-dihydroxy-3-(4-hydroxyphenyl)-4H-1-benzopyran-4-one]", "values": [
      {"measurement": "TFEB levels and activity, lysosomal biogenesis", "setting": "[3]", "result": "induction of TFEB levels and activity as well as lysosomal biogenesis"}
    ]},
    {"compound": "2-hydroxypropyl-β-cyclodextrin", "values": [
      {"measurement": "TFEB-mediated clearance of proteolipid aggregates", "setting": "[4]", "result": "promotes TFEB-mediated clearance of proteolipid aggregates"}
    ]},
    {"compound": "C[S+](CC[C@H](N)C(=O)[O-])C[C@H]1O[C@@H](n2cnc3c(N)ncnc32)[C@H](O)[C@@H]1O", "note": "(stereo partly shown) [S-adenosyl-methionine]", "values": [
      {"measurement": "reduction of the amount of stomach damage", "setting": "[5]", "result": 90, "unit": "%"}
    ]},
    {"compound": "O=C(O)C=Cc1ccccc1", "note": "[cinnamic acid]", "values": [
      {"measurement": "TFEB mRNA expression (semi-quantitative RT-PCR)", "setting": "[2]", "result": "upregulation of TFEB mRNA expression"}
    ]},
    {"compound": "CC1=C(/C=C/C(C)=C/C=C/C(C)=C/C(=O)O)C(C)(C)CCC1", "note": "[ATRA, all-trans retinoic acid]", "values": [
      {"measurement": "Tfeb mRNA expression (qRT-PCR)", "setting": "[1]", "result": "increased expression of Tfeb"}
    ]}
  ]
}
